Here are results for one compound from patent US20230210755A1, “FUNCTIONAL SKIN COATING POLYMER” (The Johns Hopkins University, priority 2020, published 2023).

A short description of this data set: Extractables and leachables from UV absorber containing films in synthetic perspiration, quantitative 1H NMR. The format is physicochemical. As to conditions: control: UV filter post-added to extract of Comparative 1 film just prior to concentration (recovery). The procedure:
The films described hereinabove, including the comparative example were further characterized for their ability to retain their UV-filtering components under pseudo-physiological conditions with the potential to extract unbound or otherwise mobile UV-filtering compounds. In general, films were immersed in a gently agitated solution of artificial perspiration for 24 hours at room temperature. Following removal of the films, a small amount of dimethylsulfone was added to each extract solution before it was concentrated to dryness under vacuum (65° C./0 torr). The resulting residues were then taken up in DMSO-d6 and analyzed by quantitative ^1H NMR against the added internal standard (dimethylsulfone). The method was validated by control samples, which were prepared by spiking the extracts derived from silicone films made without UV-filtering compounds, with known amounts of UV-filtering compounds immediately prior to concentration under vacuum.
20-mL screw cap borosilicate vials were charged with 10 g of synthetic perspiration (purchased from Reagents). […] Samples were then analyzed using a Bruker 400 MHz NMR spectrometer. Quantitative determination of the extracted UV filter(s) was then made by comparing the relative integration of distinct resonances derived from the UV filtering compound(s) against that of the internal standard (dimethylsulfone).

As to `CCCCC(CC)COC(=O)C=Cc1ccc(OC)cc1` (stereo not shown) [Octinoxate], the “UV filter found by 1H NMR” value was found to be 98%.
